Patent publication US20060150260A1, “Genes related to drug resistance” (Northwestern University, priority 2004, published 2006)

How the values were obtained:
Type in all cases: cell-based, human
[1] = test system: MCF-7 cells infected with cDNA inserts B4, B6, D10, E5; assay: Colony forming assay after 4OHTAM treatment, cDNA (RIG)-containing populations
Method: (§1) Colony Forming Assay: five hundred cells were plated per 60 mm plate and allowed to recover overnight. […] Treatment continued for 14 days with media replacement every two days; then cells were allowed to recover for two weeks, fixed with alcohol and stained with crystal violet (2% w/v). Colonies (over 150 cells per group) were counted. Experiments were done in triplicate.
(§2) Resistance was determined by colony-forming assay as described in Materials and Methods: plates were stained, and colonies were counted (FIG. 2B); results of the experiment were plotted (FIG. 2C). […] In heterogeneous populations the level of resistance is lower than in single-cell clones (presence of cells without inserts, different levels of expression, etc), so resistance induced by selected cDNAs in individual cells can be much higher. As selected cDNAs induced resistance to 4OHTAM, they were considered to be resistance-inducing genes (RIGs).

[2] = test system: GFP-expressing MCF-7 control cells; assay: Colony forming assay after 4OHTAM treatment, GFP control; conditions: 7.5 µM of 4OHTAM, 14 days treatment
Method: as §1, §2

MCF-7 cells [3] = assay: Cell growth with 4OHTAM; parameters: cell growth: dose or concentration left out as unconfirmed
Method: Cells: MCF-7 (ATCC: HTB-22) cells were grown in Dulbecco's Modified Eagle's medium, 2 mM glutamine, 0.1 mM non-essential amino acids, 10 units/ml of penicillin, 10 μg/ml of streptomycin (all—Invitrogen, Calif.), supplemented with 10% fetal bovine serum (HyClone, Utah), 6 μg/ml of insulin (Sigma, Mo.), 30 μg/ml of fungin, and 10 μg/ml of plasmocin (both—InvivoGen, Calif.). 4-Hydroxytamoxifen (Sigma, Mo.) was used as 10 mM stock solution in ethanol and stored at −20° C.
To gain a better understanding of changes induced by the RIGs, cell growth of RIGs-expressing populations was evaluated with and without 4OHTAM (FIG. 3). In drug-free media the proliferation rate of the B4 RIG-expressing cells was at least equal to parental MCF-7 cells or GFP-expressing control, while for B6, D10 and E5 the proliferation rate was higher (FIG. 3A). […] It is contemplated that cessation of growth for parental and control cells reflects terminal damage and initial stages of cellular demise, whereas for RIG E5-expressing cells cessation of growth is a protective response to drug exposure.

MCF-7 cells [4] = assay: Apoptosis check: propidium iodide DNA content (FACS) and DNA ladder
Method: Cell staining. Propidium iodide (DNA content): cells were permeabilized with cold EtOH, incubated with propidium iodide/RNase staining buffer (BD Bioscience, Calif.) for 15 min at room temperature, and analyzed by flow cytometry.
(§3) Flow Cytometry was performed using a Beckman Coulter Epics XL-MCL (Beckman, Fla.) with System II v. 3.0 software and CYAN (DakoCytomation, Colo.) and Summit v. 3.3 software.

[5] = test system: B6-containing MCF-7 cells; assay: Mitochondrial mass, MitoFluor 589 staining, flow cytometry; conditions: 4OHTAM for 72 hr
Method: MitoTracker Red CMXRos (mitochondrial membrane potential) and MitoFluor 589 (mitochondrial mass detection): both dyes were obtained from Molecular Probes, Calif., and added to cells (250 nM final concentration) for 25 min at 37° C. in the CO2 incubator. Cells were then trypsinized and analyzed by flow cytometry or by fluorescent microscope.
as §3
The fate of mitochondria was also examined in experiments assessing mitochondrial activity (FIG. 7C). […] The intracellular content of this organelle on a per cell basis remains fairly constant with only insignificant fluctuations (FIG. 7B), indicating a tight control of the number of mitochondria per cell. 1S A population of B6-containing cells treated with 4OHTAM for 72 hr contains approximately 30% of cells with reduced mitochondrial content (67% have normal mitochondrial content), which is close to the distribution of parental MCF-7 cells treated for 48 hr (FIG. 7B). At the same two timepoints mitochondrial activity distributions are vastly different: a separate low-activity peak for MCF-7 and a barely noticeable asymmetry (“shoulder”) for B6-cells (FIG. 7C). The present invention is not limited to a particular mechanism. […]

4-Hydroxytamoxifen [4OHTAM]
resistance of cDNA-expressing cells relative to control (EGFP-only) cells ([1]; 7.5 μM 4OHTAM, colony-forming assay): five-six times more resistant | survival of populations, colony formation assay ([1]; cDNA-containing populations, 7.5 µM of 4OHTAM, 14 days treatment): ~65% | survival of GFP-expressing control, colony formation assay [2]: > 10% | cell proliferation (MCF-7 cells [3]; 10 mM 4OHTAM, MCF-7 cells): blocked | cell growth (MCF-7 cells [3]; RIGs-containing and parental cells): inhibited | DNA fragmentation pattern (DNA ladder) (MCF-7 cells [4]; genomic DNA of 4OHTAM-treated cells): no characteristic DNA fragmentation pattern (DNA ladder) was detected | apoptotic sub-G1 peak in FACS profiles (MCF-7 cells [4]; up to 20 μM 4OHTAM): No evidence was found of a characteristic sub-G1 peak | cells with normal mitochondrial content [5]: 67% | cells with reduced mitochondrial content [5]: approximately 30%
